Assay results: the supplement of paper PMC10307832

Tests used:
Test in all cases: relative viability (nuclei count vs DMSO), 5 days (fraction); higher = more cells survive
[1] = compound: CC[C@H](Nc1ncnc2[nH]cnc12)c1nc2cccc(F)c2c(=O)n1-c1ccccc1 [Idelalisib] + CC(=O)Nc1cccc(-n2c(=O)n(C3CC3)c(=O)c3c(Nc4ccc(I)cc4F)n(C)c(=O)c(C)c32)c1 [Trametinib] (partner 0.02 µM)
Summary of the method: (§1)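 Lung cancer cell lines were pin-tool dosed in 1536-well plates on the day after seeding, with either a lone drug or a fixed anchor-drug dose plus five library-drug doses (not always all listed) in √10 steps. Nuclei were counted on 4× images after 5 days. Relative viability is the ratio of treated-well to vehicle-well nuclei counts, with each value a median of duplicate plates.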

[2] = compound: CC[C@H](Nc1ncnc2[nH]cnc12)c1nc2cccc(F)c2c(=O)n1-c1ccccc1 [Idelalisib] + Cc1cc(Nc2cc(N3CCN(C)CC3)nc(Sc3ccc(NC(=O)C4CC4)cc3)n2)n[nH]1 [Tozasertib] (partner 0.1 µM)
Summary of the method: as §1

[3] = compound: CC[C@H](Nc1ncnc2[nH]cnc12)c1nc2cccc(F)c2c(=O)n1-c1ccccc1 [Idelalisib] + Cc1nc(NC(=O)N2CCC[C@H]2C(N)=O)sc1-c1ccnc(C(C)(C)C(F)(F)F)c1 [Alpelisib] (partner 2 µM)
Summary of the method: as §1

[4] = compound: Nc1nc2[nH]cc(CCc3ccc(C(=O)N[C@@H](CCC(=O)O)C(=O)O)cc3)c2c(=O)[nH]1 [Pemetrexed] + O=C(CCCCCCC(=O)Nc1ccccc1)NO [Vorinostat] (partner 1 µM)
Summary of the method: as §1

Cell Line	relative viability ([1]; first compound 0.04 µM)	relative viability ([1]; first compound 0.1265 µM)	relative viability ([1]; first compound 0.4 µM)	relative viability ([1]; first compound 1.265 µM)	relative viability ([1]; first compound 4 µM)	relative viability ([2]; first compound 0.04 µM)	relative viability ([2]; first compound 0.1265 µM)	relative viability ([2]; first compound 0.4 µM)	relative viability ([2]; first compound 1.265 µM)	relative viability ([2]; first compound 4 µM)	relative viability ([3]; first compound 0.04 µM)	relative viability ([3]; first compound 0.1265 µM)	relative viability ([3]; first compound 1.265 µM)	relative viability ([3]; first compound 4 µM)	relative viability ([4]; first compound 0.002 µM)	relative viability ([4]; first compound 0.006325 µM)	relative viability ([4]; first compound 0.02 µM)	relative viability ([4]; first compound 0.06325 µM)	relative viability ([4]; first compound 0.2 µM)	relative viability ([3]; first compound 0.4 µM)
HOP-62	0.345	0.354	0.292	0.362	0.247	0.415	0.408	0.392	0.436	0.326	1.19	1.09	0.853	1.06	0.387	0.581	0.721	0.626	0.547	
LC-2-ad	0.963	0.957	0.931	1.02	0.806	0.44	0.455	0.374	0.397	0.457	0.887	0.683	0.893	0.637	0.657	0.671	0.663	0.319	0.27	0.959
SW 900	0.854	0.861	0.856	0.667	0.734	0.69	0.539	0.542	0.605	0.594					0.499	0.523	0.682	0.576	0.406	
NCI-H322M	0.58	0.57	0.479	0.505	0.537	0.516	0.532	0.466	0.44	0.453	0.826	0.764	0.62	0.716	0.84	0.957	0.888	0.893	0.58	0.632
SK-LU-1	0.422	0.467	0.394	0.492	0.414	0.294	0.313	0.337	0.32	0.327	1.43	1.12	0.876	0.968	0.684	0.782	0.887	0.763	0.795	0.886
NCI-H1734	0.696	0.697	0.546	0.69	0.556	0.264	0.246	0.253	0.254	0.246	0.695	0.7	0.592	0.443	0.794	0.725	0.931	0.778	0.708	0.574
HCC-44	1.07	1.04	1.08	1.06	0.941	0.879	1.02	0.762	0.866	0.756	0.831	0.812	0.577	0.638	0.972	1.11	1.14	1.11	1.13	0.602
NCI-H1703											0.37	0.304	0.272	0.207						0.273
NCI-H2170	1.05	0.941	0.851	0.893	0.805	0.796	0.706	0.69	0.727	0.633	0.795	0.854	0.688	0.547	0.564	0.813	0.899	0.823	0.45	0.708
NCI-H1395	1.12	1	0.965	1.07	0.844	0.817	0.77	0.771	0.767	0.62	1.17	0.987	1.15	0.694	0.513	0.871	0.959	0.7	0.738	0.974
NCI-H1355	0.305	0.38	0.41	0.467	0.284	0.534	0.611	0.442	0.488	0.386	0.956	0.767	0.679	0.568	0.526	0.603	0.667	0.599	0.62	0.751
NCI-H1650	0.524	0.46	0.618	0.51	0.575	0.312	0.405	0.36	0.33	0.304					0.521	0.671	0.634	0.443	0.234	
IA-LM											0.787	0.754	0.72	0.84	0.95	0.988	1.1	0.808	0.982	0.884
NCI-H1666	0.806	0.931	0.815	0.803	0.831	0.662	0.594	0.78	0.639	0.57	1.03	0.909	0.888	0.747	1.01	0.95	1.03	0.924	0.863	0.89
HCC-78	0.68	0.702	0.711	0.704	0.542	0.314	0.389	0.392	0.388	0.295	0.269	0.291	0.287	0.207		0.447	0.401	0.294	0.328	0.246
H3255	0.602	0.57	0.471	0.577	0.527	0.646	0.852	0.583	0.568	0.544	0.652	0.683	0.518	0.607	0.66	0.767	0.753	0.817	0.596	0.591
NCI-H23	0.462	0.38	0.281	0.399	0.312	0.39	0.528	0.363		0.334	0.737	0.635	0.727	0.515	0.464	0.592	0.77	0.713	0.62	0.357
NCI-H1944	0.448	0.354	0.336	0.352	0.318	0.272	0.229	0.219	0.224	0.211	0.881	0.836	0.688	0.545	0.43	0.487	0.565	0.592	0.531	0.651
